{"source": "ChEMBL document CHEMBL1201862", "about": "“PubChem BioAssay data set” (2004)", "key": {"[1]": {"target": "T1, Disintegrin and metalloproteinase domain-containing protein 17 (Homo sapiens, UniProt P78536)", "experiment": "ADAM17 protease inhibitors, dose response, counter-screen for ADAM10 exosite inhibitor project, biochemical, quenched FRET substrate (AID 743253)"}, "[2]": {"experiment": "ADAM10 inhibitors, peptide cleavage, dose response, biochemical, QFRET (AID 743254);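 note: EDANS fluorescence gain as the protease cuts the substrate; inhibitor potency against ADAM10 proteolytic activity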"}, "[3]": {"target": "T1, Disintegrin and metalloproteinase domain-containing protein 17", "experiment": "exosite inhibitors of ADAM17, dose response, biochemical (AID 743260)"}, "[4]": {"experiment": "ADAM10 protease inhibitors, dose response, selectivity assay for ADAM17 exosite inhibitor project, biochemical, FRET peptide substrate, recombinant human ADAM10 (AID 743259)"}, "[5]": {"target": "T2, Protein skinhead-1 (Caenorhabditis elegans, UniProt P34707)", "T2 sequence (P34707 whole entry)": "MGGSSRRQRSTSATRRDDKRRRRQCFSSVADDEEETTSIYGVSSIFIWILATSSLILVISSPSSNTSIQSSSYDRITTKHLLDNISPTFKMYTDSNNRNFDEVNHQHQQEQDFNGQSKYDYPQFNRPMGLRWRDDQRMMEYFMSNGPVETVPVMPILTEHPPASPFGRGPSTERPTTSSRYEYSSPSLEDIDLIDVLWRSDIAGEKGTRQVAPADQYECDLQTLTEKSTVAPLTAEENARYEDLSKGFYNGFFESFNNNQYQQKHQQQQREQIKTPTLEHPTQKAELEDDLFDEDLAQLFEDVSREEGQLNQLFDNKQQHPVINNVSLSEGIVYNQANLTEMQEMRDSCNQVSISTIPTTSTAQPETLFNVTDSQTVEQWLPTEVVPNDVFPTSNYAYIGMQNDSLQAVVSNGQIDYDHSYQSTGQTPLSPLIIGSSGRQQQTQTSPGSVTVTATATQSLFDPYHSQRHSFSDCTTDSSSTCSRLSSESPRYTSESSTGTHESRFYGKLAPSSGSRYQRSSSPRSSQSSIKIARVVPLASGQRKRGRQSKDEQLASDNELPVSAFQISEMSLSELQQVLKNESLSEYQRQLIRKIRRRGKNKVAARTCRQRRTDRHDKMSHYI", "assay_type": "functional"}, "[6]": {"target": "Beta-galactosidase (Escherichia coli, UniProt Q8VNN2)", "experiment": "Dose response counterscreen for EBI2 assay utilizing the enzyme, b-galactosidase.", "assay_type": "functional"}, "[7]": {"target": "SWI/SNF-related matrix-associated actin-dependent regulator of chromatin subfamily A member 2 (Homo sapiens, UniProt P51531)", "experiment": "Luminescence-based cell-based high throughput dose response assay to identify activators of the function of SWI/SNF related, matrix associated, actin dependent regulator of chromatin, subfamily a, member 2 (SMARCA2, BRM).", "assay_type": "functional"}, "[8]": {"experiment": "Counterscreen for activators of the function of SWI/SNF related, matrix associated, actin dependent regulator of chromatin, subfamily a, member 2 (SMARCA2, BRM): Luminescence-based cell-based high throughput dose response assay to identify non-selective compounds using the VP16 reporter assay.", "assay_type": "functional"}, "[9]": {"target": "Major prion protein (Homo sapiens, UniProt P04156)", "assay_type": "functional, cell-based"}, "[10]": {"experiment": "cells"}, "[11]": {"target": "T3, High affinity choline transporter 1 (Homo sapiens, UniProt Q9GZV3)", "T3 sequence (Q9GZV3 whole entry)": "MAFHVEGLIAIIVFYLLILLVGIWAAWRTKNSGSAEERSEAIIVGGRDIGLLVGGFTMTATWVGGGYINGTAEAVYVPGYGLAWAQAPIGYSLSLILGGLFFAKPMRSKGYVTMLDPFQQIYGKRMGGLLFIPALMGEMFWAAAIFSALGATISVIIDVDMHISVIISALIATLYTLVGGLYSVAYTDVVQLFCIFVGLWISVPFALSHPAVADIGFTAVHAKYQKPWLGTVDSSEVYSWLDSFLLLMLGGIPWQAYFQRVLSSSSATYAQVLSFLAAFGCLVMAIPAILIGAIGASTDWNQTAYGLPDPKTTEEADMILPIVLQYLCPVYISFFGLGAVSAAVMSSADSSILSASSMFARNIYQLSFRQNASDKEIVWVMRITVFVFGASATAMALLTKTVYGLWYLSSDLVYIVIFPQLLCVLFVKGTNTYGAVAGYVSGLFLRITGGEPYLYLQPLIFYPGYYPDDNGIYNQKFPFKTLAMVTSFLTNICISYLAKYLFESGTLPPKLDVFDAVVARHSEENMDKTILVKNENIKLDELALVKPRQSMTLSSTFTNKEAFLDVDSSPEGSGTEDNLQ", "experiment": "CHT inhibitors, dose response, cell-based, 5-point CRC, membrane potential dye (AID 504840)", "assay_type": "functional"}, "[12]": {"test_system": "HEK293", "experiment": "cells", "assay_type": "functional, cell-based", "conditions": "Homo sapiens"}, "[13]": {"target": "Genome polyprotein (dengue virus type 2, UniProt P29990)", "experiment": "Dengue-2 NS5 methyltransferase inhibitors, primary screen, biochemical, confirmation dose response (AID 588689)", "assay_type": "functional"}, "[14]": {"test_system": "HEK293", "experiment": "cells", "assay_type": "functional, cell-based", "conditions": "Homo sapiens", "remark": "listed apart in the source"}, "[15]": {"test_system": "HEK293", "experiment": "NOD1 signaling inhibitors, primary screen, cell-based, luminescence, uHTS (AID 1578)", "assay_type": "functional", "conditions": "Homo sapiens"}, "[16]": {"test_system": "HEK293", "experiment": "NOD2 signaling inhibitors in MDP-stimulated cells, cell-based, uHTS, luminescence (AID 2001)", "assay_type": "functional", "conditions": "Homo sapiens"}, "[17]": {"test_system": "HEK293", "experiment": "cells", "conditions": "Homo sapiens"}, "[18]": {"target": "Nucleotide-binding oligomerization domain-containing protein 2 (Homo sapiens, UniProt Q9HC29)", "experiment": "NOD2 signaling inhibitors, cell-based, luminescence, uHTS, HEK293 (AID 1566)", "assay_type": "functional"}, "[19]": {"target": "T4, Nucleotide-binding oligomerization domain-containing protein 1 (Homo sapiens, UniProt Q9Y239)", "T4 sequence (Q9Y239 whole entry)": "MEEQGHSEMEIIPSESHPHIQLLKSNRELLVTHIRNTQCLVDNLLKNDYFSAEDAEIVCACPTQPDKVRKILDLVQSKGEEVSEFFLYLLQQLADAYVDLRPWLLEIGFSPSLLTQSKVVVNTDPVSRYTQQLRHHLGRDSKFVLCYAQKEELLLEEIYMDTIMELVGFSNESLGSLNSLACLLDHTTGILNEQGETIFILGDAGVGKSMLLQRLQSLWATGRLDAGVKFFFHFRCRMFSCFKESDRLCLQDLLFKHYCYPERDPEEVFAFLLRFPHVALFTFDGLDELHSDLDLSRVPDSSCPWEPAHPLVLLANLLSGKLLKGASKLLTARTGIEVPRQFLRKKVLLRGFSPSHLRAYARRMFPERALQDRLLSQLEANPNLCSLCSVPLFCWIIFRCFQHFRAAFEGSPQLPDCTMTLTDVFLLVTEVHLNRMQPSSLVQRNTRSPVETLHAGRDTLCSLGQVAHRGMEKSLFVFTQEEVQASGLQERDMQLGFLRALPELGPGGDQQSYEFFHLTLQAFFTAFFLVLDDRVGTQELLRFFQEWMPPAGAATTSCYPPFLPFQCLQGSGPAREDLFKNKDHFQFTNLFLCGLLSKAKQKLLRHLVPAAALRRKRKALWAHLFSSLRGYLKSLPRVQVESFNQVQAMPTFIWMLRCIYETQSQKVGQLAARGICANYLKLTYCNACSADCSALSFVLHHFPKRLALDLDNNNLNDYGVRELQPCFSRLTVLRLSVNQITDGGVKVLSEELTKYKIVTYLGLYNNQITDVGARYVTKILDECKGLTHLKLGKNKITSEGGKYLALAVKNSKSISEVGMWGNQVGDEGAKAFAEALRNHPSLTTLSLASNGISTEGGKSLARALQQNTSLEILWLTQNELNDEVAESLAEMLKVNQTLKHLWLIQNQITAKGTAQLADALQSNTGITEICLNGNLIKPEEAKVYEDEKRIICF", "experiment": "NOD1 signaling inhibitors, SAR follow-up, revised (AID 2333)", "assay_type": "functional"}, "[20]": {"test_system": "HEK293", "experiment": "cells", "assay_type": "functional, cell-based", "conditions": "Homo sapiens", "remark": "listed apart in the source"}, "[21]": {"target": "Tumor necrosis factor (Homo sapiens, UniProt P01375)", "experiment": "TNFa-triggered NF-kB activation inhibitors, SAR follow-up, cell-based, revised (AID 2337)", "assay_type": "functional"}, "[22]": {"experiment": "cytotoxicity toward NIH3T3 fibroblasts, dose response, counter-screen, cell-based, ATP luminescence, mouse fibroblasts (AID 2010);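 note: cells exposed to compound for about 90 hours before reading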", "assay_type": "functional"}, "[23]": {"experiment": "inhibitors of intracellular T. cruzi replication, confirmation, NIH3T3 host cells, beta-gal luminescence (AID 2044);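 note: luminescent beta-galactosidase reporter signal from transgenic T. cruzi replicating inside host cells; inhibitors lower the luminescence signal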", "assay_type": "functional, cell-based"}}, "note": "The source made the active and inactive calls."}
{"smiles": "O=C(c1cccs1)N1CCc2c([nH]c3ccccc23)C1c1ccc(Cl)cc1", "note": "(configuration not stated)", "values": [{"measurement": "IC50", "setting": "[1]", "value": "> 69.5 µM (inactive)"}, {"measurement": "IC50", "setting": "[2]", "value": "> 69.5 µM (inactive)"}, {"measurement": "IC50", "setting": "[3]", "value": "> 69.5 µM (inactive)"}, {"measurement": "IC50", "setting": "[4]", "value": "32.4 µM (inactive)"}, {"measurement": "IC50", "setting": "[5]", "value": "> 100 µM (inactive)"}]}
{"smiles": "CCC1CO/C(=C(\\C(Cl)=C(Cl)Cl)[N+](=O)[O-])N1", "note": "(configuration not stated)", "values": [{"measurement": "IC50", "setting": "[1]", "value": "27.9 µM (inactive)"}, {"measurement": "IC50", "setting": "[2]", "value": "14.9 µM (inactive)"}]}
{"smiles": "O=C(c1cc2ccccc2o1)N1CCN(c2ccccc2Cl)CC1", "values": [{"measurement": "IC50", "setting": "[6]", "value": "> 80 µM (inactive)"}]}
{"smiles": "COC(=O)Nc1ccc(OCc2ccccc2)cc1", "values": [{"measurement": "EC50", "setting": "[7]", "value": "> 91.2 µM (inactive)"}, {"measurement": "EC50", "setting": "[8]", "value": "> 91.2 µM (inactive)"}]}
{"smiles": "Cc1ccc(-c2cc(C(=O)NN=Cc3cccc(OCc4ccccc4)c3)[nH]n2)cc1C", "values": [{"measurement": "IC50", "setting": "[3]", "value": "> 69.5 µM (inactive)"}, {"measurement": "IC50", "setting": "[4]", "value": "> 69.5 µM (inactive)"}]}
{"smiles": "O=C(c1ccc2ccccc2c1)N1CCN(c2ccc(C(F)(F)F)cn2)CC1", "values": [{"measurement": "IC50", "setting": "[6]", "value": "> 80 µM (inactive)"}]}
{"smiles": "O=C(CSc1nc2ccccc2s1)N/N=C/c1ccco1", "values": [{"measurement": "EC50", "setting": "[7]", "value": "> 91.2 µM (inactive)"}, {"measurement": "EC50", "setting": "[8]", "value": "> 91.2 µM (inactive)"}]}
{"smiles": "Cc1csc(NC(=O)CSc2nc(C(C)C)nc3ccccc23)n1", "values": [{"measurement": "IC50", "setting": "[9]", "value": "2.05 µM (active)"}, {"measurement": "IC50", "setting": "[10]", "value": "69.1 µM (inactive)"}, {"measurement": "IC50", "setting": "[11]", "value": "7.94 µM (active)"}]}
{"smiles": "CCC1NC(=O)c2cc3ccccc3cc2-n2c1nc1cc(C)cc(C)c1c2=O", "note": "(configuration not stated)", "values": [{"measurement": "IC50", "setting": "[6]", "value": "> 80 µM (inactive)"}]}
{"smiles": "Nc1nc2ccc(Cl)cc2cc1C(=O)NCc1ccccc1Br", "values": [{"measurement": "IC50", "setting": "[9]", "value": "7.35 µM (active)"}, {"measurement": "IC50", "setting": "[10]", "value": "46.3 µM (inactive)"}]}
{"smiles": "COc1cc(C(=O)Nc2scc(-c3ccc(Br)cc3)c2C(=O)O)cc(OC)c1OC", "values": [{"measurement": "IC50", "setting": "[9]", "value": "5.71 µM (active)"}, {"measurement": "IC50", "setting": "[12]", "value": "19 µM (active)"}, {"measurement": "IC50", "setting": "[13]", "value": "58 µM (active)"}, {"measurement": "IC50", "setting": "[14]", "value": "> 20 µM (inactive)"}, {"measurement": "IC50", "setting": "[10]", "value": "> 138 µM (inactive)"}, {"measurement": "EC50", "setting": "[15]", "value": "3.97 µM (active)"}, {"measurement": "IC50", "setting": "[16]", "value": "13.2 µM (inactive)"}, {"measurement": "IC50", "setting": "[17]", "value": "13.6 µM (active)"}, {"measurement": "EC50", "setting": "[18]", "value": "13.9 µM (active)"}, {"measurement": "IC50", "setting": "[19]", "value": "5.83 µM (active)"}, {"measurement": "IC50", "setting": "[20]", "value": "> 20 µM (inactive)"}, {"measurement": "IC50", "setting": "[21]", "value": "6.88 µM (active)"}]}
{"smiles": "CC(C)(C)OC(=O)NCCCC[C@H](NC(=O)c1[nH]cnc1C(=O)NC(c1ccccc1)c1ccccc1)C(=O)OC(C)(C)C", "values": [{"measurement": "EC50", "setting": "[22]", "value": "> 60 µM (not active)"}, {"measurement": "IC50", "setting": "[1]", "value": "> 69.5 µM (inactive)"}, {"measurement": "EC50", "setting": "[23]", "value": "3.48 µM (active)"}, {"measurement": "IC50", "setting": "[2]", "value": "10.6 µM (inactive)"}]}
